Experimental data published in PubChem BioAssay AID1259407 (Chemical Carcinogenesis Research Information System (CCRIS), 2018).
Active and inactive are the calls of the source. How the calls were made is not given here.

System: CCRIS mutagenicity, Ames/micronucleus/aberration tests
Experiment: CCRIS mutagenicity studies
[1] = Test System: AMES SALMONELLA TYPHIMURIUM, Strain/Indicator: TA97, Metabolic Activation: NONE, Method: PREINCUBATION
[2] = Test System: AMES SALMONELLA TYPHIMURIUM, Strain/Indicator: TA98, Metabolic Activation: NONE, Method: PREINCUBATION
[3] = Test System: AMES SALMONELLA TYPHIMURIUM, Strain/Indicator: TA100, Metabolic Activation: NONE, Method: PREINCUBATION
[4] = Test System: AMES SALMONELLA TYPHIMURIUM, Strain/Indicator: TA1535, Metabolic Activation: HAMSTER, LIVER, S-9, AROCLOR 1254 (10%), Method: PREINCUBATION
[5] = Test System: AMES SALMONELLA TYPHIMURIUM, Strain/Indicator: TA1535, Metabolic Activation: HAMSTER, LIVER, S-9, AROCLOR 1254 (30%), Method: PREINCUBATION
[6] = Test System: AMES SALMONELLA TYPHIMURIUM, Strain/Indicator: TA1535, Metabolic Activation: NONE, Method: PREINCUBATION

O=C1NC(=O)C(O)(O)C(=O)N1
mutagenic call (End Point: IN VITRO CHROMOSOMAL ABERRATIONS, Test System: CHO CELLS, Metabolic Activation: NONE): inactive; negative
mutagenic call (End Point: IN VITRO CHROMOSOMAL ABERRATIONS, Test System: CHO CELLS, Metabolic Activation: RAT, LIVER, S-9, AROCLOR 1254): inactive; negative
mutagenic call (Test System: AMES SALMONELLA TYPHIMURIUM, Strain/Indicator: TA97, Metabolic Activation: HAMSTER, LIVER, S-9, AROCLOR 1254 (10 OR 30%), Method: PREINCUBATION): inactive; negative
mutagenic call [1]: inactive; negative
mutagenic call (Test System: AMES SALMONELLA TYPHIMURIUM, Strain/Indicator: TA97, Metabolic Activation: RAT, LIVER, S-9, AROCLOR 1254 (10 OR 30%), Method: PREINCUBATION): inactive; negative
mutagenic call (Test System: AMES SALMONELLA TYPHIMURIUM, Strain/Indicator: TA98, Metabolic Activation: HAMSTER, LIVER, S-9, AROCLOR 1254 (10 OR 30%), Method: PREINCUBATION): inactive; negative
mutagenic call [2]: inactive; negative
mutagenic call (Test System: AMES SALMONELLA TYPHIMURIUM, Strain/Indicator: TA98, Metabolic Activation: RAT, LIVER, S-9, AROCLOR 1254 (10 OR 30%), Method: PREINCUBATION): inactive; negative
mutagenic call (Test System: AMES SALMONELLA TYPHIMURIUM, Strain/Indicator: TA100, Metabolic Activation: HAMSTER, LIVER, S-9, AROCLOR 1254 (10 OR 30%), Method: PREINCUBATION): inactive; negative
mutagenic call [3]: inactive; negative
mutagenic call (Test System: AMES SALMONELLA TYPHIMURIUM, Strain/Indicator: TA100, Metabolic Activation: RAT, LIVER, S-9, AROCLOR 1254 (10 OR 30%), Method: PREINCUBATION): inactive; negative
mutagenic call [4]: inactive; negative
mutagenic call [5]: inactive; negative
mutagenic call [6]: inactive; negative
mutagenic call (Test System: AMES SALMONELLA TYPHIMURIUM, Strain/Indicator: TA1535, Metabolic Activation: RAT, LIVER, S-9, AROCLOR 1254 (10 OR 30%), Method: PREINCUBATION): inactive; negative

NNc1ccn([C@@H]2O[C@H](CO)[C@@H](O)[C@H]2O)c(=O)n1
mutagenic call (Test System: CHINESE HAMSTER V-79, Strain/Indicator: V-79/6-THIOGUANINE, Metabolic Activation: NONE, Method: REPLATING): active; positive

CN1CC[C@]23c4c5ccc(O)c4O[C@H]2[C@@H](O)C=C[C@H]3[C@H]1C5
mutagenic call (Test System: AMES SALMONELLA TYPHIMURIUM, Strain/Indicator: TA98, Metabolic Activation: RAT, LIVER, S-9, AROCLOR 1254, Method: STANDARD PLATE): inactive; negative

O=[N+]([O-])c1c(O)c(Cl)cc(Cl)c1Cl
mutagenic call (Test System: AMES SALMONELLA TYPHIMURIUM, Strain/Indicator: TA97, Metabolic Activation: HAMSTER, LIVER, S-9, AROCLOR 1254 (5 OR 10%), Method: PREINCUBATION): inactive; negative
mutagenic call (Test System: AMES SALMONELLA TYPHIMURIUM, Strain/Indicator: TA97, Metabolic Activation: HAMSTER, LIVER, S-9, AROCLOR 1254 (30%), Method: PREINCUBATION): inactive; negative
mutagenic call [1]: inactive; negative
mutagenic call (Test System: AMES SALMONELLA TYPHIMURIUM, Strain/Indicator: TA97, Metabolic Activation: RAT, LIVER, S-9, AROCLOR 1254 (10%), Method: PREINCUBATION): inactive; negative
mutagenic call (Test System: AMES SALMONELLA TYPHIMURIUM, Strain/Indicator: TA97, Metabolic Activation: RAT, LIVER, S-9, AROCLOR 1254 (30%), Method: PREINCUBATION): inactive; negative
mutagenic call (Test System: AMES SALMONELLA TYPHIMURIUM, Strain/Indicator: TA98, Metabolic Activation: HAMSTER, LIVER, S-9, AROCLOR 1254 (10%), Method: PREINCUBATION): inactive; negative
mutagenic call (Test System: AMES SALMONELLA TYPHIMURIUM, Strain/Indicator: TA98, Metabolic Activation: HAMSTER, LIVER, S-9, AROCLOR 1254 (30%), Method: PREINCUBATION): inactive; negative
mutagenic call [2]: inactive; negative
mutagenic call (Test System: AMES SALMONELLA TYPHIMURIUM, Strain/Indicator: TA98, Metabolic Activation: RAT, LIVER, S-9, AROCLOR 1254 (10%), Method: PREINCUBATION): inactive; negative
mutagenic call (Test System: AMES SALMONELLA TYPHIMURIUM, Strain/Indicator: TA98, Metabolic Activation: RAT, LIVER, S-9, AROCLOR 1254 (30%), Method: PREINCUBATION): inactive; negative
mutagenic call (Test System: AMES SALMONELLA TYPHIMURIUM, Strain/Indicator: TA100, Metabolic Activation: HAMSTER, LIVER, S-9, AROCLOR 1254 (10%), Method: PREINCUBATION): inactive; negative
mutagenic call (Test System: AMES SALMONELLA TYPHIMURIUM, Strain/Indicator: TA100, Metabolic Activation: HAMSTER, LIVER, S-9, AROCLOR 1254 (30%), Method: PREINCUBATION): inactive; negative
mutagenic call [3]: inactive; negative
mutagenic call (Test System: AMES SALMONELLA TYPHIMURIUM, Strain/Indicator: TA100, Metabolic Activation: RAT, LIVER, S-9, AROCLOR 1254 (10%), Method: PREINCUBATION): inactive; negative
mutagenic call (Test System: AMES SALMONELLA TYPHIMURIUM, Strain/Indicator: TA100, Metabolic Activation: RAT, LIVER, S-9, AROCLOR 1254 (30%), Method: PREINCUBATION): inactive; negative
mutagenic call [4]: inactive; negative
mutagenic call [5]: inactive; negative
mutagenic call [6]: inactive; negative
mutagenic call (Test System: AMES SALMONELLA TYPHIMURIUM, Strain/Indicator: TA1535, Metabolic Activation: RAT, LIVER, S-9, AROCLOR 1254 (10%), Method: PREINCUBATION): inactive; negative
mutagenic call (Test System: AMES SALMONELLA TYPHIMURIUM, Strain/Indicator: TA1535, Metabolic Activation: RAT, LIVER, S-9, AROCLOR 1254 (30%), Method: PREINCUBATION): inactive; negative
mutagenic call (Test System: AMES SALMONELLA TYPHIMURIUM, Strain/Indicator: TA1537, Metabolic Activation: HAMSTER, LIVER, S-9, AROCLOR 1254 (30%), Method: PREINCUBATION): inactive; negative
mutagenic call (Test System: AMES SALMONELLA TYPHIMURIUM, Strain/Indicator: TA1537, Metabolic Activation: NONE, Method: PREINCUBATION): inactive; negative
mutagenic call (Test System: AMES SALMONELLA TYPHIMURIUM, Strain/Indicator: TA1537, Metabolic Activation: RAT, LIVER, S-9, AROCLOR 1254 (30%), Method: PREINCUBATION): inactive; negative

c1cc(OCC2CO2)c2sncc2c1 (stereo unspecified)
mutagenic call (Test System: AMES SALMONELLA TYPHIMURIUM, Strain/Indicator: TA100, Metabolic Activation: NONE, Method: STANDARD PLATE): active; positive
